From PubChem BioAssay AID248 (DTP/NCI, 2004)
Where “and” joins values, the source holds several entries; their conditions need not be identical. Identical values can stand only once. Inconclusive results and toxic doses are left out. Cut-off read from the data, not from the text of the source: active = T/C of 150% or more; inactive = T/C below 125%.

Tested on: L1210 leukemia ip in BDF1 mice, survival T/C
Assay: NCI In Vivo Anticancer Drug Screen. Data for tumor model L1210 Leukemia (intraperitoneal) in B6D2F1 (BDF1) mice
Details: higher = longer survival
Outline: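 Tumor cells were implanted, animals were treated, and survival was followed. The result divides the treated measurement by the vehicle-control measurement.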

[1] = endpoint: mean survival time, dose: 100.0 mg/kg/injection, schedule: Q04DX003 (ip), vehicle: saline with Tween-80
[2] = endpoint: mean survival time, dose: 200.0 mg/kg/injection, schedule: Q04DX003 (ip), vehicle: saline with Tween-80
[3] = endpoint: mean survival time, dose: 100.0 mg/kg/injection, schedule: Q01DX001 (ip), vehicle: Klucel (hydroxypropylcellulose) (HPC)
[4] = endpoint: mean survival time, dose: 400.0 mg/kg/injection, schedule: Q01DX001 (ip), vehicle: Klucel (hydroxypropylcellulose) (HPC)
[5] = endpoint: mean survival time, dose: 100.0 mg/kg/injection, schedule: Q01DX001 (ip), vehicle: saline
[6] = endpoint: mean survival time, dose: 200.0 mg/kg/injection, schedule: Q01DX001 (ip), vehicle: saline
[7] = endpoint: mean survival time, dose: 400.0 mg/kg/injection, schedule: Q01DX001 (ip), vehicle: saline
[8] = endpoint: mean survival time, dose: 100.0 mg/kg/injection, schedule: Q04DX003 (ip), vehicle: saline
[9] = endpoint: mean survival time, dose: 200.0 mg/kg/injection, schedule: Q04DX003 (ip), vehicle: saline
[10] = endpoint: mean survival time, dose: 400.0 mg/kg/injection, schedule: Q04DX003 (ip), vehicle: saline
[11] = endpoint: mean survival time, dose: 100.0 mg/kg/injection, schedule: Q04DX002 (ip), vehicle: Klucel (hydroxypropylcellulose) (HPC)
[12] = endpoint: mean survival time, dose: 200.0 mg/kg/injection, schedule: Q04DX002 (ip), vehicle: Klucel (hydroxypropylcellulose) (HPC)
[13] = endpoint: mean survival time, dose: 400.0 mg/kg/injection, schedule: Q04DX002 (ip), vehicle: Klucel (hydroxypropylcellulose) (HPC)

Measured: T/C

O=CCC(O)C(O)C(O)CO (stereo not drawn)
inactive: endpoint: mean survival time, dose: 62.5 mg/kg/injection, schedule: Q01DX009 (ip), vehicle: saline 115 % of control and 91 % of control | endpoint: mean survival time, dose: 125.0 mg/kg/injection, schedule: Q01DX009 (ip), vehicle: saline 94 % of control and 95 % of control | endpoint: mean survival time, dose: 125.0 mg/kg/injection, schedule: Q01DX010 (ip), vehicle: saline 94 % of control and 92 % of control | endpoint: mean survival time, dose: 125.0 mg/kg/injection, schedule: Q01DX Z (ip), vehicle: carboxymethylcellulose (CMC) 98 % of control | endpoint: mean survival time, dose: 250.0 mg/kg/injection, schedule: Q01DX001 (ip), vehicle: saline 101 % of control | endpoint: mean survival time, dose: 250.0 mg/kg/injection, schedule: Q01DX009 (ip), vehicle: saline 102 % of control and 104 % of control | endpoint: mean survival time, dose: 250.0 mg/kg/injection, schedule: Q01DX010 (ip), vehicle: saline 97 % of control and 101 % of control | endpoint: mean survival time, dose: 250.0 mg/kg/injection, schedule: Q01DX Z (ip), vehicle: carboxymethylcellulose (CMC) 102 % of control | endpoint: mean survival time, dose: 500.0 mg/kg/injection, schedule: Q01DX001 (ip), vehicle: saline 100 % of control | endpoint: mean survival time, dose: 500.0 mg/kg/injection, schedule: Q01DX009 (ip), vehicle: saline 101 % of control | endpoint: mean survival time, dose: 500.0 mg/kg/injection, schedule: Q01DX010 (ip), vehicle: saline 94 % of control and 101 % of control | endpoint: mean survival time, dose: 500.0 mg/kg/injection, schedule: Q01DX Z (ip), vehicle: carboxymethylcellulose (CMC) 116 % of control | endpoint: mean survival time, dose: 1000.0 mg/kg/injection, schedule: Q01DX001 (ip), vehicle: saline 101 % of control | endpoint: mean survival time, dose: 1000.0 mg/kg/injection, schedule: Q01DX010 (ip), vehicle: saline 102 % of control and 104 % of control | endpoint: mean survival time, dose: 1000.0 mg/kg/injection, schedule: Q01DX Z (ip), vehicle: carboxymethylcellulose (CMC) 109 % of control | endpoint: mean survival time, dose: 2000.0 mg/kg/injection, schedule: Q01DX001 (ip), vehicle: saline 106 % of control | endpoint: median survival time, dose: 62.5 mg/kg/injection, schedule: Q01DX009 (ip), vehicle: saline 100 % of control | endpoint: median survival time, dose: 125.0 mg/kg/injection, schedule: Q01DX009 (ip), vehicle: saline 111 % of control | endpoint: median survival time, dose: 250.0 mg/kg/injection, schedule: Q01DX009 (ip), vehicle: saline 100 % of control | endpoint: median survival time, dose: 500.0 mg/kg/injection, schedule: Q01DX009 (ip), vehicle: saline 100 % of control and 105 % of control

CCCC(=O)C(CC)C(OC(C)=O)(C(F)(F)F)C(F)(F)F (stereo not drawn)
inactive: endpoint: mean survival time, dose: 75.0 mg/kg/injection, schedule: Q01DX009 (ip), vehicle: Klucel (hydroxypropylcellulose) (HPC) 87 % of control | endpoint: mean survival time, dose: 150.0 mg/kg/injection, schedule: Q01DX009 (ip), vehicle: Klucel (hydroxypropylcellulose) (HPC) 89 % of control | endpoint: mean survival time, dose: 300.0 mg/kg/injection, schedule: Q01DX009 (ip), vehicle: Klucel (hydroxypropylcellulose) (HPC) 87 % of control

CCCCCCCCCCCCCCCCSc1ccc(Br)cc1
inactive: [1] 92 % of control | [2] 102 % of control | endpoint: mean survival time, dose: 400.0 mg/kg/injection, schedule: Q04DX003 (ip), vehicle: saline with Tween-80 97 % of control

Cc1c(Cl)c(CCl)c(Cl)c(CCl)c1Cl
inactive: [3] 94 % of control | endpoint: mean survival time, dose: 200.0 mg/kg/injection, schedule: Q01DX001 (ip), vehicle: Klucel (hydroxypropylcellulose) (HPC) 92 % of control | [4] 89 % of control

OC[C@@H]1CC[C@H](n2cnc3c(Cl)ncnc32)C1
inactive: [5] 103 % of control | [6] 101 % of control | [7] 101 % of control

OCC(O)C1OC(Oc2ccccc2)C(O)C(O)C1O (stereo not drawn)
inactive: [8] 100 % of control | [9] 98 % of control | [10] 100 % of control

CCOC(=O)CCCC1(C)C(C#N)C(=O)NC(=O)C1C#N (stereo not drawn)
inactive: endpoint: mean survival time, dose: 100.0 mg/kg/injection, schedule: Q01DX009 (ip), vehicle: saline 96 % of control | [8] 112 % of control | endpoint: mean survival time, dose: 200.0 mg/kg/injection, schedule: Q01DX009 (ip), vehicle: saline 98 % of control | [9] 102 % of control | endpoint: mean survival time, dose: 400.0 mg/kg/injection, schedule: Q01DX009 (ip), vehicle: saline 90 % of control | [10] 94 % of control

O=C(N/N=C\c1cc(Cl)ccc1[N+](=O)[O-])c1ccccc1
inactive: endpoint: mean survival time, dose: 100.0 mg/kg/injection, schedule: Q04DX003 (ip), vehicle: Klucel (hydroxypropylcellulose) (HPC) 97 % of control | endpoint: mean survival time, dose: 200.0 mg/kg/injection, schedule: Q04DX003 (ip), vehicle: Klucel (hydroxypropylcellulose) (HPC) 97 % of control | endpoint: mean survival time, dose: 400.0 mg/kg/injection, schedule: Q04DX003 (ip), vehicle: Klucel (hydroxypropylcellulose) (HPC) 103 % of control

COc1ccc(COC(=O)Nc2cc(OC)ccc2OC)cc1
inactive: [11] 101 % of control | [12] 101 % of control | [13] 107 % of control

O=C(O)c1c(O)cc(=O)oc1-c1ccc(Cl)cc1Cl
inactive: endpoint: mean survival time, dose: 75.0 mg/kg/injection, schedule: Q01DX001 (ip), vehicle: saline 101 % of control | endpoint: mean survival time, dose: 150.0 mg/kg/injection, schedule: Q01DX001 (ip), vehicle: saline 101 % of control | endpoint: mean survival time, dose: 300.0 mg/kg/injection, schedule: Q01DX001 (ip), vehicle: saline 106 % of control

C1CC(=NN=C2CCSCC2)CCS1
inactive: [8] 96 % of control | [9] 94 % of control | [10] 123 % of control

CC(C)CCC[C@@H](C)[C@H]1CC[C@H]2[C@@H]3CC[C@H]4C[C@H]5N[C@H]5C[C@]4(C)[C@H]3CC[C@]12C
inactive: [3] 93 % of control | [4] 90 % of control

O=NO.O=N[O-].O=N[O-].[Co+3].[NH-]CC[N-]CCO.[NH-]CC[N-]CCO
inactive: endpoint: mean survival time, dose: 25.0 mg/kg/injection, schedule: Q01DX009 (ip), vehicle: water 107 % of control | endpoint: mean survival time, dose: 25.0 mg/kg/injection, schedule: Q04DX003 (ip), vehicle: water 100 % of control | endpoint: mean survival time, dose: 50.0 mg/kg/injection, schedule: Q01DX009 (ip), vehicle: water 106 % of control and 107 % of control | endpoint: mean survival time, dose: 50.0 mg/kg/injection, schedule: Q04DX003 (ip), vehicle: water 103 % of control | endpoint: mean survival time, dose: 100.0 mg/kg/injection, schedule: Q01DX009 (ip), vehicle: water 111 % of control | endpoint: mean survival time, dose: 100.0 mg/kg/injection, schedule: Q04DX003 (ip), vehicle: water 98 % of control and 101 % of control

CCOC(=O)c1ccc(NC(=O)Nc2cc(C)ccn2)cc1
inactive: endpoint: mean survival time, dose: 100.0 mg/kg/injection, schedule: Q01DX009 (ip), vehicle: Klucel (hydroxypropylcellulose) (HPC) 96 % of control | endpoint: mean survival time, dose: 200.0 mg/kg/injection, schedule: Q01DX009 (ip), vehicle: Klucel (hydroxypropylcellulose) (HPC) 107 % of control | endpoint: mean survival time, dose: 400.0 mg/kg/injection, schedule: Q01DX009 (ip), vehicle: Klucel (hydroxypropylcellulose) (HPC) 105 % of control

O=[N+]([O-])c1cc(Br)c(N=Nc2ccc(O)cc2)c(Br)c1
inactive: endpoint: mean survival time, dose: 50.0 mg/kg/injection, schedule: Q01DX001 (ip), vehicle: saline 92 % of control | [5] 114 % of control | [6] 97 % of control | [7] 92 % of control

Cc1ccc(N=Nc2ccc(C)cc2NC(=O)c2ccc(Cl)c(Cl)c2)cc1
inactive: [11] 120 % of control | [12] 103 % of control | [13] 97 % of control

Oc1ccc2ccccc2c1Sc1c(O)ccc2ccccc12
inactive: [1] 101 % of control | [2] 101 % of control
